Measurements taken from patent publication US9695155B2, “Herbicidal substituted pyrimidinyloxy benzene compounds” (E. I. DU PONT DE NEMOURS AND COMPANY, priority 2013, dated 2017).

Experiments:
[1] = test system: blackgrass; assay: Test D preemergence; type: in vivo, Alopecurus myosuroides; settings: for pest or weed control at 16 g/ha / pest or weed control at 31 g/ha / pest or weed control at 62 g/ha / pest or weed control at 125 g/ha: Alopecurus myosuroides, pre-emergence; for pest or weed control at 16 g/ha: 16 g ai/ha, read-out: Plant response rating, Blackgrass; for pest or weed control at 31 g/ha / pest or weed control at 62 g/ha / pest or weed control at 125 g/ha: scale 0-100, read-out: Plant response rating, Blackgrass
Description: (§1) Seeds of plant species selected from bluegrass (annual bluegrass, Poa annua), blackgrass (Alopecurus myosuroides), canarygrass (littleseed canarygrass, Phalaris minor), chickweed (common chickweed, Stellaria media), galium (catchweed bedstraw, Galium aparine), bromegrass, downy (downy bromegrass, Bromus tectorum), field poppy (Papaver rhoeas), field violet (Viola arvensis), green foxtail (Setaria viridis), deadnettle (henbit deadnettle, Lamium amplexicaule), Italian ryegrass (Lolium multiflorum), kochia (Kochia scoparia), lambsquarters (Chenopodium album), oilseed rape (Brassica napus), pigweed (Amaranthus retroflexus), chamomile (scentless chamomile, Matricaria inodora), Russian thistle (Salsola kali), speedwell (bird's-eye speedwell, Veronica persica), spring barley (Hordeum vulgare), spring wheat (Triticum aestivum), wild buckwheat (Polygonum convolvulus), wild mustard (Sinapis arvensis), wild oat (Avena fatua), wild radish (Raphanus raphanistrum), windgrass (Apera spica-venti), winter barley (Hordeum vulgare), and winter wheat (Triticum aestivum) were planted into a silt loam soil and treated preemergence with test chemicals formulated in a non-phytotoxic solvent mixture which included a surfactant.
(§2) At the same time, these species were planted in pots containing Redi-Earth® planting medium (Scotts Company, 14111 Scottslawn Road, Marysville, Ohio 43041) comprising spaghnum peat moss, vermiculite, wetting agent and starter nutrients and treated with postemergence applications of the test chemicals formulated in the same manner. Plants ranged in height from 2 to 18 cm (1- to 4-leaf stage). Treated plants and controls were maintained in a controlled growth environment for 7 to 21 days after which time all species were compared to controls and visually evaluated. Plant response ratings, summarized in Table D, are based on a scale of 0 to 100 where 0 is no effect and 100 is complete control. A dash (-) response means no test result.

[2] = test system: chickweed; assay: Test D preemergence; type: in vivo, Stellaria media; settings: for pest or weed control at 16 g/ha / pest or weed control at 31 g/ha / pest or weed control at 62 g/ha / pest or weed control at 125 g/ha: Stellaria media, pre-emergence; for pest or weed control at 16 g/ha: 16 g ai/ha, read-out: Plant response rating, Chickweed; for pest or weed control at 31 g/ha / pest or weed control at 62 g/ha / pest or weed control at 125 g/ha: scale 0-100, read-out: Plant response rating, Chickweed
Description: as §1, §2

[3] = test system: galium; assay: Test D preemergence; type: in vivo, Galium aparine; settings: for pest or weed control at 16 g/ha / pest or weed control at 31 g/ha / pest or weed control at 62 g/ha / pest or weed control at 125 g/ha: Galium, pre-emergence; for pest or weed control at 16 g/ha: 16 g ai/ha, read-out: Plant response rating, Galium; for pest or weed control at 31 g/ha / pest or weed control at 62 g/ha / pest or weed control at 125 g/ha: scale 0-100, read-out: Plant response rating, Galium
How it was run: (§3)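 In a controlled growth environment, treated and control plants were held 7 to 21 days, then compared visually. Damage was scored 0–100, where 100 means complete control. Sprays contained surfactant in a non-phytotoxic solvent; post-applied plants were at the 1- to 4-leaf stage.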

[4] = test system: speedwell; assay: Test D preemergence; type: in vivo, Veronica persica; settings: for pest or weed control at 16 g/ha / pest or weed control at 31 g/ha / pest or weed control at 62 g/ha / pest or weed control at 125 g/ha: Veronica persica, pre-emergence; for pest or weed control at 16 g/ha: 16 g ai/ha; for pest or weed control at 16 g/ha / pest or weed control at 31 g/ha: read-out: Plant response rating, Speedwell; for pest or weed control at 62 g/ha: 62 g ai/ha; for pest or weed control at 62 g/ha / pest or weed control at 125 g/ha: scale 0-100, read-out: Plant response rating, Speedwell
Description: as §1, §2

[5] = test system: wild mustard; assay: Test D preemergence; type: in vivo, Sinapis arvensis; settings: for pest or weed control at 16 g/ha / pest or weed control at 31 g/ha / pest or weed control at 62 g/ha / pest or weed control at 125 g/ha: Brassica, pre-emergence; for pest or weed control at 16 g/ha: 16 g ai/ha, read-out: Plant response rating, Mustard, Wild; for pest or weed control at 31 g/ha / pest or weed control at 62 g/ha / pest or weed control at 125 g/ha: scale 0-100, read-out: Plant response rating, Mustard, Wild
How it was run: as §3

[6] = test system: bluegrass; assay: Test D postemergence; type: in vivo, Poa annua; settings: Postemergence, scale 0 to 100 (0 no effect, 100 complete control); for pest or weed control at 16 g/ha / pest or weed control at 31 g/ha / pest or weed control at 62 g/ha / pest or weed control at 125 g/ha: Poa annua, post-emergence, read-out: Plant response rating, Bluegrass; for pest or weed control at 16 g/ha: 16 g ai/ha
How it was run: as §3

[7] = test system: Italian ryegrass; assay: Test D postemergence; type: in vivo, Lolium multiflorum; settings: for pest or weed control at 16 g/ha / pest or weed control at 31 g/ha / pest or weed control at 62 g/ha / pest or weed control at 125 g/ha: Lolium multiflorum, post-emergence; for pest or weed control at 16 g/ha: 16 g ai/ha, scale 0-100, read-out: Plant response rating, Ryegrass, Italian; for pest or weed control at 31 g/ha / pest or weed control at 62 g/ha / pest or weed control at 125 g/ha: read-out: Plant response rating, Ryegrass, Italian
How it was run: as §3

[8] = test system: windgrass; assay: Test D postemergence; type: in vivo, Apera spica-venti; settings: for pest or weed control at 16 g/ha / pest or weed control at 31 g/ha / pest or weed control at 62 g/ha / pest or weed control at 125 g/ha: Apera spica-venti, post-emergence; for pest or weed control at 16 g/ha: 16 g ai/ha, scale 0-100, read-out: Plant response rating, Windgrass; for pest or weed control at 31 g/ha / pest or weed control at 62 g/ha / pest or weed control at 125 g/ha: read-out: Plant response rating, Windgrass
Description: as §1, §2

[9] = scale 0 (no effect) to 100 (complete control)
[10] = 31 g ai/ha, scale 0 (no effect) to 100 (complete control)
[11] = 31 g ai/ha, scale 0 to 100 (0 no effect, 100 complete control)
[12] = 62 g ai/ha, scale 0 to 100 (0 no effect, 100 complete control)
[13] = 125 g ai/ha, scale 0 to 100 (0 no effect, 100 complete control)
[14] = 250 g ai/ha, scale 0 to 100 (0 no effect, 100 complete control)

Structure (SMILES): FC(F)(F)c1cn(-c2ccccc2Oc2ncc(Cl)cn2)nn1 [Compound 166, 5-chloro-2-[2-[4-(trifluoromethyl)-1H-1,2,3-triazol-1-yl]phenoxy]pyrimidine]
- pest or weed control at 16 g/ha [1, 9]: 10%
- pest or weed control at 31 g/ha ([1]; 31 g ai/ha): 55%
- pest or weed control at 62 g/ha ([1]; 62 g ai/ha): 70%
- pest or weed control at 125 g/ha ([1]; 125 g ai/ha): 95%
- pest or weed control at 16 g/ha [2, 9]: 85%
- pest or weed control at 31 g/ha ([2]; 31 g ai/ha): 95%
- pest or weed control at 62 g/ha ([2]; 62 g ai/ha): 95%
- pest or weed control at 125 g/ha ([2]; 125 g ai/ha): 100%
- pest or weed control at 16 g/ha [3, 9]: 65%
- pest or weed control at 31 g/ha ([3]; 31 g ai/ha): 80%
- pest or weed control at 62 g/ha ([3]; 62 g ai/ha): 100%
- pest or weed control at 125 g/ha ([3]; 125 g ai/ha): 100%
- pest or weed control at 16 g/ha [4, 9]: 100%
- pest or weed control at 31 g/ha [4, 10]: 100%
- pest or weed control at 62 g/ha [4]: 100%
- pest or weed control at 125 g/ha ([4]; 125 g ai/ha): 100%
- pest or weed control at 16 g/ha [5, 9]: 65%
- pest or weed control at 31 g/ha ([5]; 31 g ai/ha): 95%
- pest or weed control at 62 g/ha ([5]; 62 g ai/ha): 100%
- pest or weed control at 125 g/ha ([5]; 125 g ai/ha): 100%
- pest or weed control at 16 g/ha [6]: 20%
- pest or weed control at 31 g/ha ([6]; 31 g ai/ha): 40%
- pest or weed control at 62 g/ha ([6]; 62 g ai/ha): 55%
- pest or weed control at 125 g/ha ([6]; 125 g ai/ha): 65%
- pest or weed control at 16 g/ha [7]: 10%
- pest or weed control at 31 g/ha [7, 11]: 20%
- pest or weed control at 62 g/ha [7, 12]: 25%
- pest or weed control at 125 g/ha [7, 13]: 40%
- pest or weed control at 16 g/ha [8]: 15%
- pest or weed control at 31 g/ha [8, 11]: 25%
- pest or weed control at 62 g/ha [8, 12]: 35%
- pest or weed control at 125 g/ha [8, 13]: 55%

Structure (SMILES): Fc1cccc(Oc2ncc(Cl)cn2)c1-n1cc(Br)cn1 [Compound 178, 2-[2-(4-bromo-1H-pyrazol-1-yl)-3-fluorophenoxy]-5-chloropyrimidine]
- pest or weed control at 16 g/ha [1, 9]: 5%
- pest or weed control at 31 g/ha ([1]; 31 g ai/ha): 10%
- pest or weed control at 62 g/ha ([1]; 62 g ai/ha): 35%
- pest or weed control at 125 g/ha ([1]; 125 g ai/ha): 85%
- pest or weed control at 16 g/ha [2, 9]: 0%
- pest or weed control at 31 g/ha ([2]; 31 g ai/ha): 50%
- pest or weed control at 62 g/ha ([2]; 62 g ai/ha): 85%
- pest or weed control at 125 g/ha ([2]; 125 g ai/ha): 90%
- pest or weed control at 16 g/ha [3, 9]: 10%
- pest or weed control at 31 g/ha ([3]; 31 g ai/ha): 30%
- pest or weed control at 62 g/ha ([3]; 62 g ai/ha): 45%
- pest or weed control at 125 g/ha ([3]; 125 g ai/ha): 60%
- pest or weed control at 16 g/ha [4, 9]: 100%
- pest or weed control at 31 g/ha [4, 10]: 100%
- pest or weed control at 62 g/ha [4]: 100%
- pest or weed control at 125 g/ha ([4]; 125 g ai/ha): 100%
- pest or weed control at 16 g/ha [5, 9]: 25%
- pest or weed control at 31 g/ha ([5]; 31 g ai/ha): 35%
- pest or weed control at 62 g/ha ([5]; 62 g ai/ha): 95%
- pest or weed control at 125 g/ha ([5]; 125 g ai/ha): 95%
- pest or weed control at 16 g/ha [6]: 20%
- pest or weed control at 31 g/ha ([6]; 31 g ai/ha): 30%
- pest or weed control at 62 g/ha ([6]; 62 g ai/ha): 35%
- pest or weed control at 125 g/ha ([6]; 125 g ai/ha): 55%
- pest or weed control at 16 g/ha [7]: 0%
- pest or weed control at 31 g/ha [7, 11]: 0%
- pest or weed control at 62 g/ha [7, 12]: 5%
- pest or weed control at 125 g/ha [7, 13]: 15%
- pest or weed control at 16 g/ha [8]: 5%
- pest or weed control at 31 g/ha [8, 11]: 10%
- pest or weed control at 62 g/ha [8, 12]: 15%
- pest or weed control at 125 g/ha [8, 13]: 20%

Structure (SMILES): N#Cc1cccc(Oc2ncc(Cl)cn2)c1-n1cc(-n2ccc(C(F)(F)F)n2)cn1 [Compound 284]
- Plant response rating, Blackgrass [1, 10]: 0
- Plant response rating, Blackgrass ([1]; 62 g ai/ha, scale 0-100): 10
- Plant response rating, Blackgrass ([1]; 125 g ai/ha, scale 0-100): 35
- Plant response rating, Blackgrass ([1]; 250 g ai/ha, scale 0-100): 65
- Plant response rating, Chickweed [2, 10]: 10
- Plant response rating, Chickweed ([2]; 62 g ai/ha, scale 0-100): 15
- Plant response rating, Chickweed ([2]; 125 g ai/ha, scale 0-100): 20
- Plant response rating, Chickweed ([2]; 250 g ai/ha, scale 0-100): 30
- Plant response rating, Galium [3, 10]: 20
- Plant response rating, Galium ([3]; 62 g ai/ha, scale 0-100): 20
- Plant response rating, Galium ([3]; 125 g ai/ha, scale 0-100): 20
- Plant response rating, Galium ([3]; 250 g ai/ha, scale 0-100): 25
- Plant response rating, Speedwell [4, 10]: 0
- Plant response rating, Speedwell ([4]; 125 g ai/ha, scale 0-100): 100
- Plant response rating, Speedwell ([4]; 250 g ai/ha, scale 0-100): 100
- Plant response rating, Mustard, Wild [5, 10]: 15
- Plant response rating, Mustard, Wild ([5]; 62 g ai/ha, scale 0-100): 15
- Plant response rating, Mustard, Wild ([5]; 125 g ai/ha, scale 0-100): 90
- Plant response rating, Mustard, Wild ([5]; 250 g ai/ha, scale 0-100): 100
- Plant response rating, Bluegrass ([6]; 62 g ai/ha): 35
- Plant response rating, Bluegrass ([6]; 31 g ai/ha): 25
- Plant response rating, Bluegrass ([6]; 125 g ai/ha): 40
- Plant response rating, Bluegrass ([6]; 250 g ai/ha): 45
- Plant response rating, Ryegrass, Italian ([7]; 31 g ai/ha, scale 0-100): 10
- Plant response rating, Ryegrass, Italian [7, 12]: 10
- Plant response rating, Ryegrass, Italian [7, 13]: 15
- Plant response rating, Ryegrass, Italian [7, 14]: 15
- Plant response rating, Windgrass ([8]; 31 g ai/ha, scale 0-100): 20
- Plant response rating, Windgrass [8, 12]: 20
- Plant response rating, Windgrass [8, 13]: 30
- Plant response rating, Windgrass [8, 14]: 30
